The results in this text go back to PMC9326219, “Design and Synthesis of 1-O- and 6′-C-Modified Heparan Sulfate Trisaccharides as Human Endo-6-O-Sulfatase 1 Inhibitors” (Frontiers in Chemistry, 2022).

The target of assay [1] is T1, human endo-6-O-sulfatase 1 (Sulf-1) (Homo sapiens, UniProt Q8IWU6).
T1 construct: gene SULF1
Description: fluorescent 4-MUS hydrolysis assay with purified human Sulf-1; kinetic fit to competitive model (IC50 […]). In kind it is biochemical.

Assay [2] deals with T1, human endo-6-O-sulfatase 1 (Sulf-1). Kind of assay: fluorescent 4-MUS hydrolysis assay with purified human Sulf-1. In kind it is biochemical.

What is called Ki is the dissociation constant of the complex between target and ligand, obtained from inhibition or displacement. The low end stands for a stronger hold on the target, the high end for a looser hold on the target. Consider `CO[C@@H]1O[C@@H](C(=O)O)[C@@H](O[C@H]2O[C@H](COS(N)(=O)=O)[C@@H](O[C@@H]3O[C@@H](C(=O)O)[C@@H](O)[C@H](O)[C@H]3OS(=O)(=O)O)[C@H](O)[C@H]2NS(=O)(=O)O)[C@H](O)[C@H]1OS(=O)(=O)O` [compound 5, IdoA2OS-GlcNS6OSO2NH2-IdoA2OS-OMe], for which the Ki in assay [1] is 140 nM.

The IC50 is the midpoint of a concentration-inhibition curve. As for `CO[C@@H]1O[C@@H](C(=O)O)[C@@H](O[C@H]2O[C@H](CNS(=O)(=O)O)[C@@H](O[C@@H]3O[C@@H](C(=O)O)[C@@H](O)[C@H](O)[C@H]3OS(=O)(=O)O)[C@H](O)[C@H]2NS(=O)(=O)O)[C@H](O)[C@H]1OS(=O)(=O)O` [compound 6, IdoA2OS-GlcNS6NS-IdoA2OS-OMe], the IC50 in assay [2] worked out at 4600 nM.
